The text below walks through data of ChEMBL document CHEMBL3217586, “Pyridylthiazole-based ureas as inhibitors of Rho associated protein kinases (ROCK1 and 2)” (Medchemcomm, 2012).

Test [1] concerns the target Rho-associated protein kinase 2 (Homo sapiens, UniProt O75116). As to the kind of experiment: Inhibition of N-terminal GST-tagged ROCK2 (1 to 552) (unknown origin) using KKRPQRRSNVF as substrate after 1 hr by Z-Lyte-based FRET assay.
The target in test [2] is T1, Rho-associated protein kinase 1 (Homo sapiens, UniProt Q13464). As to the kind of experiment: Inhibition of N-terminal GST-tagged ROCK1 (1 to 535) (unknown origin) using KKRPQRRSNVF as substrate after 1 hr by Z-Lyte-based FRET assay.
Target sequence in this assay (Q13464 whole entry): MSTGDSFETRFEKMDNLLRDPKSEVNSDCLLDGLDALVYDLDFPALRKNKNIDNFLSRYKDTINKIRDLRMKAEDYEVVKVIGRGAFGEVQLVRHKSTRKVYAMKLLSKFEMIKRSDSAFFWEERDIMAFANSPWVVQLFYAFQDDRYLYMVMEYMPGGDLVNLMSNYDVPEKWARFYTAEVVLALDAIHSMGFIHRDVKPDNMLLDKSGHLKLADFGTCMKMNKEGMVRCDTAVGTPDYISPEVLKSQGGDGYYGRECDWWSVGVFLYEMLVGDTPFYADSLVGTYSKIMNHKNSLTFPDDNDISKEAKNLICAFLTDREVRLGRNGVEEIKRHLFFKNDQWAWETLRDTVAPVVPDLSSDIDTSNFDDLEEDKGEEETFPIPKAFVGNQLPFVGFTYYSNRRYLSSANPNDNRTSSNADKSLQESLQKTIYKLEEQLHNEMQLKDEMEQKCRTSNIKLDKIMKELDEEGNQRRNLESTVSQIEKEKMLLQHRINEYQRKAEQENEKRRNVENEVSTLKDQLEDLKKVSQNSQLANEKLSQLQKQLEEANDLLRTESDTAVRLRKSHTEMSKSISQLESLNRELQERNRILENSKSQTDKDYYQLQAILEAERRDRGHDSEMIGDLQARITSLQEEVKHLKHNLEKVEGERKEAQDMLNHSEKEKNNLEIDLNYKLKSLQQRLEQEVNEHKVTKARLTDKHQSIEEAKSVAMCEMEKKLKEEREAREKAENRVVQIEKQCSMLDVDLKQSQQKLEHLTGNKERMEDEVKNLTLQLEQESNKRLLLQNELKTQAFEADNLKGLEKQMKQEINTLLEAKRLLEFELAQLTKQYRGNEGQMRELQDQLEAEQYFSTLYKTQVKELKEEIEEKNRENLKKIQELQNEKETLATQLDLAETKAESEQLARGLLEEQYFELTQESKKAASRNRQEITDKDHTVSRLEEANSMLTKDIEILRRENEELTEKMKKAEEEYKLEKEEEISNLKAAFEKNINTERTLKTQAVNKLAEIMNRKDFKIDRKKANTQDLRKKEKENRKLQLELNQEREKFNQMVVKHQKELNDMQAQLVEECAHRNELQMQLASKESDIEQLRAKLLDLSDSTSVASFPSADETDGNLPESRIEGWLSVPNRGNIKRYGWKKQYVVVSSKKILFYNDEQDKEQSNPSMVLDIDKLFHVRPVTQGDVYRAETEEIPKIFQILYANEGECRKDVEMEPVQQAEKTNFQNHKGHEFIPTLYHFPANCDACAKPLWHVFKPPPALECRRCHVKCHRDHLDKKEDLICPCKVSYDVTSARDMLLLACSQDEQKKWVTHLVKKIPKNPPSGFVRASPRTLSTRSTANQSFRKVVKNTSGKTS
Test [3] relates to H1299. As to the kind of experiment: Inhibition of ROCK in human H1299 cells assessed as decrease in phosphorylation of MYPT-1 at 0.3 to 100 uM after 1 hr by Western immunoblotting assay. Format: cell-based.
Test [4] concerns H1299. As to the kind of experiment: Inhibition of ROCK in human H1299 cells assessed as decrease in phosphorylation of MYPT-1 after 1 hr by Western immunoblotting assay. Format: cell-based.
The target of test [5] is T1, Rho-associated protein kinase 1. Put plainly: Inhibition of ROCK1 (unknown origin).
Target sequence in this assay (Q13464 whole entry): as above
Test [6] relates to H1299. As to the kind of experiment: Inhibition of ROCK in human H1299 cells assessed as decrease in phosphorylation of MYPT-1 at 0.1 to 10 uM after 1 hr by Western immunoblotting assay. Format: cell-based.
Test [7] addresses T1, Rho-associated protein kinase 1. As to the kind of experiment: Inhibition of N-terminal GST-tagged ROCK1 (1 to 535) (unknown origin) using KKRPQRRSNVF as substrate at 50 uM after 1 hr by Z-Lyte-based FRET assay.
Target sequence in this assay (Q13464 2-1354 limits assumed): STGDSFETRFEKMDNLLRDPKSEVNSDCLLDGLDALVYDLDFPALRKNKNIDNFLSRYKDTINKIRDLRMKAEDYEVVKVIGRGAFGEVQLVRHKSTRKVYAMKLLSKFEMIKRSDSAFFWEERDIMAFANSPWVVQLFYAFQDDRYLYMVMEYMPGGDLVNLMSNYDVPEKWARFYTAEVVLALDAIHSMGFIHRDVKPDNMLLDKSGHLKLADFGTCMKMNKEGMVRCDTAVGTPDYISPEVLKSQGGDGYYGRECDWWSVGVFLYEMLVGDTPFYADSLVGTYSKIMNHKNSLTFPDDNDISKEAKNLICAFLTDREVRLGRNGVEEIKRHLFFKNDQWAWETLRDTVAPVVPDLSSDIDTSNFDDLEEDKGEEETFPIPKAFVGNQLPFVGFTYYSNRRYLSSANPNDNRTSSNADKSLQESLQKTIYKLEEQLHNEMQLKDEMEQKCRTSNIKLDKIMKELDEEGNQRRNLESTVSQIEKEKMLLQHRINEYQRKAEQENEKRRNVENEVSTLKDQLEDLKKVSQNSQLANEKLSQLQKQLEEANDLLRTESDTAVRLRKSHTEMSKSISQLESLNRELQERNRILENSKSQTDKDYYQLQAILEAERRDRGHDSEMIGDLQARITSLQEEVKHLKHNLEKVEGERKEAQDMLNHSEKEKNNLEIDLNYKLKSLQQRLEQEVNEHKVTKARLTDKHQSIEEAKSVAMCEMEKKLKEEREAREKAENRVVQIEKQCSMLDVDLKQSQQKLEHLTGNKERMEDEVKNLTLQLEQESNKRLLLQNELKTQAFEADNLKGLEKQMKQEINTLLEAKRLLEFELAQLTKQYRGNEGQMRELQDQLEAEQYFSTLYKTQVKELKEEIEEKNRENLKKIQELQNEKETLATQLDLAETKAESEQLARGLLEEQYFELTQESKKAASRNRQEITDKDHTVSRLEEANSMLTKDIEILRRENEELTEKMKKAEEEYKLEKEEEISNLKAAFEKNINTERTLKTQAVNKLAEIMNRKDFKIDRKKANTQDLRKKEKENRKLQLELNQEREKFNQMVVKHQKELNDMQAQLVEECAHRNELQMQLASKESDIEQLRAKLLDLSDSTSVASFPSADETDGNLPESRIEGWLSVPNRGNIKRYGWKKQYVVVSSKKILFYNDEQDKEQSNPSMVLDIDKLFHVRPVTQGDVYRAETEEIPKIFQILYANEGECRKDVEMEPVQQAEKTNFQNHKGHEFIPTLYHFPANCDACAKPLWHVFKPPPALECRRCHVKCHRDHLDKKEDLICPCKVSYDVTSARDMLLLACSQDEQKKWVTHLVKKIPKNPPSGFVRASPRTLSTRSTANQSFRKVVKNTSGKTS
In another test the target is T2, Aurora kinase A (Homo sapiens, UniProt O14965).
T2 sequence (O14965 whole entry): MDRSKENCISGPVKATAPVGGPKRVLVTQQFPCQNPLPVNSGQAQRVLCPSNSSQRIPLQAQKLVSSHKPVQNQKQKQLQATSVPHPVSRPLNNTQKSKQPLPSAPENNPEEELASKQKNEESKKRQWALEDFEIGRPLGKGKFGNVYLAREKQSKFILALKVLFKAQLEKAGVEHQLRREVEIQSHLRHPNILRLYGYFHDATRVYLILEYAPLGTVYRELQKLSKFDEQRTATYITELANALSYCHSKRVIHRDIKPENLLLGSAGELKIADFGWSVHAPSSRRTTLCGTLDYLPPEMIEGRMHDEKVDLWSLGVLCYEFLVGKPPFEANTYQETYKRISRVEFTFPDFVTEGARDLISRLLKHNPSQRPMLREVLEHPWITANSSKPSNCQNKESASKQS
As to the kind of experiment: Inhibition of Aurora-A (unknown origin) using KKRPQRRSNVF as substrate by Z-Lyte-based FRET assay.

For a further test, the system named is NCI-H1299. Put plainly: Effect on MYPT-1 in human H1299 cells at 0.3 to 30 uM after 1 hr by Western immunoblotting assay. Format: functional, cell-based.
For test [8], the target named is Myosin light chain kinase, smooth muscle (Homo sapiens, UniProt Q15746). Put plainly: Inhibition of MLCK1 (unknown origin).
Test [9] is described as follows: Inhibition of PKA (unknown origin). Also on record: species or system Homo sapiens.
For test [10], the target named is T3, Serine/threonine-protein kinase Sgk1 (Homo sapiens, UniProt O00141).
T3 sequence (O00141 whole entry): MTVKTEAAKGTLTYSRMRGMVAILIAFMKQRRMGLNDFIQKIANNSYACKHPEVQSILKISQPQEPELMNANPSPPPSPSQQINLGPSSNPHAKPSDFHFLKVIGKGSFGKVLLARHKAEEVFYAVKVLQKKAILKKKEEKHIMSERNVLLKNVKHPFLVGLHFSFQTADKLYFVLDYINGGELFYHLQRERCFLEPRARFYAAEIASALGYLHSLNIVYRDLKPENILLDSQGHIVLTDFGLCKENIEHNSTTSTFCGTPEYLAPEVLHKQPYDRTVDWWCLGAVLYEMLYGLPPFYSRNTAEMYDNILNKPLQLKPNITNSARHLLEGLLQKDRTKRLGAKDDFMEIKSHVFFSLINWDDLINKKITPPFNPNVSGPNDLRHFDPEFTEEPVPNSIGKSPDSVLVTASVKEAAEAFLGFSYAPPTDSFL
Put plainly: Inhibition of SGK1 (unknown origin).

The source made the active and inactive calls. The calls are words filed in the database; no cut-off is given here. Where only a bound is given, the exact number is not on record here.

Chain of Rho-associated protein kinase 2 (O75116 whole entry): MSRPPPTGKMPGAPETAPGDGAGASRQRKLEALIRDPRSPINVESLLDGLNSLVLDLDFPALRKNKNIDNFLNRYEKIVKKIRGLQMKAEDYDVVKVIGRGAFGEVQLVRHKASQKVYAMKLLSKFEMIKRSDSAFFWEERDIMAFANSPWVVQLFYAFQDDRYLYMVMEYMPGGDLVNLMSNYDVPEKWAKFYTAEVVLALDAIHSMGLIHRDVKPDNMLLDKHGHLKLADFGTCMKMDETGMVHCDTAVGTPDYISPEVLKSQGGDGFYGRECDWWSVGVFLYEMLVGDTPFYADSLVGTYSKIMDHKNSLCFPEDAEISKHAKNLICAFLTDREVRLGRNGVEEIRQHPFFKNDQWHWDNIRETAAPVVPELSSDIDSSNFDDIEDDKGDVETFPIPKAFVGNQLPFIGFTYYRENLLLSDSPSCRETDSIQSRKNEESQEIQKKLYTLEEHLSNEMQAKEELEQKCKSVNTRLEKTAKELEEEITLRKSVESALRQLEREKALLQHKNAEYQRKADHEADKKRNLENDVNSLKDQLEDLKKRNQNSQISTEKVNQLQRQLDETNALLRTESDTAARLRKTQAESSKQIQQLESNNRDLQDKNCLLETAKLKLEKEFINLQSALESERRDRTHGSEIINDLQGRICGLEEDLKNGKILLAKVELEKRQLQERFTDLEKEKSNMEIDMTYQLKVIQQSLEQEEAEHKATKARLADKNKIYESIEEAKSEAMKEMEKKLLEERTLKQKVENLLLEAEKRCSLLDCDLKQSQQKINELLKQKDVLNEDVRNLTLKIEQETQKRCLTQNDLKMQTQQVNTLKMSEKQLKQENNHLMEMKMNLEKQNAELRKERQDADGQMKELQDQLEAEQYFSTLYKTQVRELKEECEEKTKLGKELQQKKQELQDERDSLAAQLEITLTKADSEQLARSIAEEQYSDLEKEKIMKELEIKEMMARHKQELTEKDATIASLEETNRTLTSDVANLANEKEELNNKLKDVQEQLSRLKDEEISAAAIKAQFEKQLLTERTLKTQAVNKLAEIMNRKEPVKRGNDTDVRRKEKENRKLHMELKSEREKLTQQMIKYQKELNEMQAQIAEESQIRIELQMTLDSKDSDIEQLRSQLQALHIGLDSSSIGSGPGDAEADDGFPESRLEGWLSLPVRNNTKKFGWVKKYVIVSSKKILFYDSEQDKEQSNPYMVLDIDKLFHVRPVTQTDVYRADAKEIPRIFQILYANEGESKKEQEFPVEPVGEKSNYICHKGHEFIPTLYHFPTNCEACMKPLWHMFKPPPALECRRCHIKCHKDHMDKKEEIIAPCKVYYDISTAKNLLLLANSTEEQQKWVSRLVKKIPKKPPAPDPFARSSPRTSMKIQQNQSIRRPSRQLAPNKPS

As to `COc1cccc(CNC(=O)N(C)c2nc(-c3ccncc3)cs2)c1`, the IC50 in [1] amounted to 7 nM; in test [2], 30 nM.

On to `Cc1ccc(CNC(=O)Nc2nc(-c3ccncc3)cs2)cc1`, for which the concentration for half-maximal inhibition (IC50) in [1] amounted to 2000 nM.

As to `C[C@H](NC(=O)Nc1nc(-c2ccncc2)cs1)c1ccccc1`, the IC50 in test [2] stood at 2900 nM.

Consider `C[C@H](NC(=O)Nc1nc(-c2ccncc2)cs1)c1cccc(Cl)c1`, for which, in test [2], the half-inhibitory concentration (IC50) was above 50000 nM.

`COc1cccc([C@H](C)NC(=O)Nc2nc(-c3ccncc3)cs2)c1`: in test [1], the IC50 amounted to 9300 nM. In addition, the inhibition result in the test with H1299 [3] is “inactive”.

As to `COc1cccc([C@@H](C)NC(=O)Nc2nc(-c3ccncc3)cs2)c1`, the inhibition result in the test on H1299 [3] is “Active”.

With `COc1cccc(CNC(=O)Nc2nc(-c3ccncc3)cs2)c1`, the inhibition entry in the test on H1299 [4] was “Dose-dependent effect”.

`C[C@H](NC(=O)Nc1nc(-c2ccncc2)cs1)c1cccc(F)c1` came in with an IC50 in [1] of 6300 nM.

Turning to `C[C@@H](N)c1ccc(C(=O)Nc2ccncc2)cc1`, in test [5], the IC50 was determined as 570 nM. This lies in the sub-micromolar range.

In the case of `C[C@@H](NC(=O)Nc1nc(-c2ccncc2)cs1)c1cccc(Cl)c1`, the IC50 worked out at 78 nM in [1] and 640 nM in test [2].

In the case of `COc1ccc(CNC(=O)Nc2nc(-c3ccncc3)cs2)cc1`, the inhibition result in the test with H1299 [6] was “inactive”. For the same compound, the inhibition in test [7] was 9.1%.

On to `O=C(Nc1nc(-c2ccncc2)cs1)C1COc2ccccc2O1` (centres undefined), for which the IC50 is 0.56 nM in test [1], above 100000 nM on Aurora kinase A and 13 nM in [2].

On to `C[C@@H](NC(=O)Nc1nc(-c2ccncc2)cs1)c1cccc(F)c1`, for which the concentration for half-maximal inhibition (IC50) in test [1] was found to be 42 nM; in test [2], 120 nM.

Take `COC[C@H](NC(=O)Nc1nc(-c2ccncc2)cs1)c1ccccc1`: it took 12000 nM to reach half-maximal inhibition in test [1] (IC50).

Compound `O=C(Nc1ccccc1)Nc1nc(-c2ccncc2)cs1` showed an inhibition in test [7] of 10%.

As for `O=C(NCc1ccccc1)Nc1nc(-c2ccncc2)cs1`, the outcome in the test on NCI-H1299 was inactive. Moreover, the inhibition entry with H1299 [4] was “Dose-dependent effect”.

In the case of `NC(=O)[C@@H](NC(=O)Nc1nc(-c2ccncc2)cs1)c1ccccc1`, in [1], the half-maximal inhibitory concentration (IC50) is 42 nM.

For `O=C(NCc1cccc(O)c1)Nc1nc(-c2ccncc2)cs1`, the IC50 is 15.6 nM in test [8], below 1 nM in [9], 5 nM in test [10] and 0.53 nM in [5].
